Patent US20250206727A1, “HETEROCYCLIC SUBSTITUTED AROMATIC COMPOUND, PREPARATION METHOD THEREFOR, HERBICIDAL COMPOSITION AND APPLICATION” (QINGDAO KINGAGROOT CHEMICAL COMPOUND CO., LTD., priority 2022, published 2025)

What was measured:
Test in all cases: Post-emergence test on weeds (greenhouse, spray at 2-3 leaf stage)
Assay type in all cases: in vivo
Design in all cases: key: Level 10: completely dead; Level 9: growth control rate greater than or equal to 90% and less than 100%; Level 8: growth control rate greater than or equal to 80% and less than 90%; Level 7: growth control rate greater than or equal to 70% and less than 80%; Level 6: growth control rate greater than or equal to 60% and less than 70%; Level 5: growth control rate greater than or equal to 50% and less than 60%; Level 4: growth control rate greater than or equal to 40% and less than 50%; Level 3: growth control rate greater than or equal to 30% and less than 40%; Level 2: growth control rate greater than or equal to 20% and less than 30%; Level 1: growth control rate less than 20%; Level 0: no effect
Conditions in all cases: 3 weeks after application
Echinochloa crus-galli = system: Echinochloa crus-galli
Source text: (§1) The activity level criteria for plant damage (i.e., growth control rate) are as follows: • Level 10: completely dead; • Level 9: growth control rate greater than or equal to 90% and less than 100%; • Level 8: growth control rate greater than or equal to 80% and less than 90%; • Level 7: growth control rate greater than or equal to 70% and less than 80%; • Level 6: growth control rate greater than or equal to 60% and less than 70%; • Level 5: growth control rate greater than or equal to 50% and less than 60%; • Level 4: growth control rate greater than or equal to 40% and less than 50%; • Level 3: growth control rate greater than or equal to 30% and less than 40%; • Level 2: growth control rate greater than or equal to 20% and less than 30%; • Level 1: growth control rate less than 20%; • Level 0: no effect.
(§2) The above growth control rates are fresh weight control rates.
(§3) Monocotyledonous and dicotyledonous weed seeds (Descurainia sophia, Capsella bursa-pastoris, Abutilon theophrasti, Galium spurium, Stellaria media, Lithospermum arvense, Rorippa indica, Alopecurus aequalis, Alopecurus japonicus, Eleusine indica, Beckmannia syzigachne, Sclerochloa dura, Erigeron canadensis, Phleum paniculatum, Veronica polita, Bromus japonicus, Aegilops tauschii, Phalaris arundinacea, Amaranthus retrofexus, Chenopodium, Commelina communis, Cichorium endivia, Convolvulus arvensis, Cirsium arvense, Solanum nigrum, Acalypha australis, Digitaria sanguinalis, Echinochloa crus-galli, Setaria viridis, Setaa pumila, Lepochloa chinensis, Monochona vaginalis, Sagitta trifolia, Schoenoplectiella juncoides, Cypenus rotundus, Cyperus ira, Cyperus difformis, Fimbristylis, Portulaca oleracea, Xanthium sibiricum, Ipomoea nil, Eschenbachia japonica, etc.) and major crop seeds (wheat, maize, paddy rice, soybean, cotton, oilseed rape, millet, sorghum, potato, sesame, castor plant, etc.) were placed in plastic pots filled with soil and then covered with 0.5-2 cm of soil to allow them to grow in a favorable greenhouse environment. Two weeks after sowing, the test plants were treated at the stage of 2-3 leaves. The test compounds of the present invention were individually dissolved with acetone, then added with Tween® 80, with 1.5 L/ha of methyl oleate emulsifiable concentrate as a synergist, diluted into solutions of certain concentrations using certain amount of water, and sprayed to the plants using a spray tower. After drug application, the experimental results on weeds were collected after 3 weeks of cultivation in a greenhouse. The compounds were applied at 500, 250, […], 15, and 7.5 g a.i./ha in triplicate, and the results were averaged.

Amaranthus retroflexus = system: Amaranthus retroflexus
Source text: as §1, §2, §3

Abutilon theophrasti = system: Abutilon theophrasti
Source text: as §1, §2, §3

Setaria viridis = system: Setaria viridis
Source text: as §1, §2, §3

Digitaria sanguinalis = system: Digitaria sanguinalis
Source text: as §1, §2, §3

Veronica polita = system: Veronica polita
Source text: as §1, §2, §3

COC(=O)C1(C)ON=C(c2cc(-c3ncc(C(F)(F)F)c(F)c3F)c(F)cc2Cl)O1 (stereo not drawn) [Compound 4]
10: activity level (fresh weight growth control rate), Echinochloa crus-galli (Echinochloa crus-galli; 60 g a.i./ha) | activity level (fresh weight growth control rate), Amaranthus retroflexus (Amaranthus retroflexus; 60 g a.i./ha) | activity level (fresh weight growth control rate), Abutilon theophrasti (Abutilon theophrasti; 60 g a.i./ha) | activity level (fresh weight growth control rate), Setaria viridis (Setaria viridis; 60 g a.i./ha) | activity level (fresh weight growth control rate), Digitaria sanguinalis (Digitaria sanguinalis; 60 g a.i./ha) | activity level (fresh weight growth control rate), Veronica polita (Veronica polita; 60 g a.i./ha)

CC1(C(=O)ON=C(c2ccccc2)c2ccccc2)ON=C(c2cc(-c3ncc(C(F)(F)F)cc3Cl)c(F)cc2Cl)O1 (racemic) [Compound 146]
10: activity level (fresh weight growth control rate), Echinochloa crus-galli (Echinochloa crus-galli; 60 g a.i./ha) | activity level (fresh weight growth control rate), Amaranthus retroflexus (Amaranthus retroflexus; 60 g a.i./ha) | activity level (fresh weight growth control rate), Abutilon theophrasti (Abutilon theophrasti; 60 g a.i./ha) | activity level (fresh weight growth control rate), Setaria viridis (Setaria viridis; 60 g a.i./ha) | activity level (fresh weight growth control rate), Digitaria sanguinalis (Digitaria sanguinalis; 60 g a.i./ha) | activity level (fresh weight growth control rate), Veronica polita (Veronica polita; 60 g a.i./ha)

COC(=O)C1(C)ON=C(c2cc(-c3ncc(C(C)(F)F)cc3Cl)c(F)cc2Cl)O1 (stereo not drawn) [Compound 10]
10: activity level (fresh weight growth control rate), Echinochloa crus-galli (Echinochloa crus-galli; 60 g a.i./ha) | activity level (fresh weight growth control rate), Amaranthus retroflexus (Amaranthus retroflexus; 60 g a.i./ha) | activity level (fresh weight growth control rate), Abutilon theophrasti (Abutilon theophrasti; 60 g a.i./ha) | activity level (fresh weight growth control rate), Setaria viridis (Setaria viridis; 60 g a.i./ha) | activity level (fresh weight growth control rate), Digitaria sanguinalis (Digitaria sanguinalis; 60 g a.i./ha) | activity level (fresh weight growth control rate), Veronica polita (Veronica polita; 60 g a.i./ha)

CCC1(C(=O)OC)ON=C(c2cc(-c3ncc(C(F)(F)F)cc3Cl)c(F)cc2Cl)O1 (stereo not drawn) [Compound 17]
10: activity level (fresh weight growth control rate), Echinochloa crus-galli (Echinochloa crus-galli; 60 g a.i./ha) | activity level (fresh weight growth control rate), Amaranthus retroflexus (Amaranthus retroflexus; 60 g a.i./ha) | activity level (fresh weight growth control rate), Abutilon theophrasti (Abutilon theophrasti; 60 g a.i./ha) | activity level (fresh weight growth control rate), Setaria viridis (Setaria viridis; 60 g a.i./ha) | activity level (fresh weight growth control rate), Digitaria sanguinalis (Digitaria sanguinalis; 60 g a.i./ha) | activity level (fresh weight growth control rate), Veronica polita (Veronica polita; 60 g a.i./ha)

Cc1ccc(C=NOC(=O)C2(C)ON=C(c3cc(-c4ncc(C(F)(F)F)cc4Cl)c(F)cc3Cl)O2)s1 (racemic) [Compound 144]
10: activity level (fresh weight growth control rate), Echinochloa crus-galli (Echinochloa crus-galli; 60 g a.i./ha) | activity level (fresh weight growth control rate), Amaranthus retroflexus (Amaranthus retroflexus; 60 g a.i./ha) | activity level (fresh weight growth control rate), Abutilon theophrasti (Abutilon theophrasti; 60 g a.i./ha) | activity level (fresh weight growth control rate), Setaria viridis (Setaria viridis; 60 g a.i./ha) | activity level (fresh weight growth control rate), Digitaria sanguinalis (Digitaria sanguinalis; 60 g a.i./ha) | activity level (fresh weight growth control rate), Veronica polita (Veronica polita; 60 g a.i./ha)

COC(=O)C1(C)ON=C(c2cc(-c3ncc(C(F)(F)F)cc3F)c(F)cc2Cl)O1 (stereo not drawn) [Compound 6]
10: activity level (fresh weight growth control rate), Echinochloa crus-galli (Echinochloa crus-galli; 60 g a.i./ha) | activity level (fresh weight growth control rate), Amaranthus retroflexus (Amaranthus retroflexus; 60 g a.i./ha) | activity level (fresh weight growth control rate), Abutilon theophrasti (Abutilon theophrasti; 60 g a.i./ha) | activity level (fresh weight growth control rate), Setaria viridis (Setaria viridis; 60 g a.i./ha) | activity level (fresh weight growth control rate), Digitaria sanguinalis (Digitaria sanguinalis; 60 g a.i./ha) | activity level (fresh weight growth control rate), Veronica polita (Veronica polita; 60 g a.i./ha)

COC(=O)C1(C)ON=C(c2cc(-c3ncc(C(F)(F)F)cc3Cl)c(F)cc2Cl)O1 (stereo not drawn) [Compound 15]
10: activity level (fresh weight growth control rate), Echinochloa crus-galli (Echinochloa crus-galli; 15 g a.i./ha) | activity level (fresh weight growth control rate), Amaranthus retroflexus (Amaranthus retroflexus; 15 g a.i./ha) | activity level (fresh weight growth control rate), Abutilon theophrasti (Abutilon theophrasti; 15 g a.i./ha) | activity level (fresh weight growth control rate), Setaria viridis (Setaria viridis; 15 g a.i./ha) | activity level (fresh weight growth control rate), Digitaria sanguinalis (Digitaria sanguinalis; 15 g a.i./ha) | activity level (fresh weight growth control rate), Veronica polita (Veronica polita; 15 g a.i./ha)

CCCOC(=O)C1(C)ON=C(c2cc(-c3ncc(Cl)cc3Cl)c(F)cc2Cl)O1 (stereo not drawn) [Compound 87]
10: activity level (fresh weight growth control rate), Echinochloa crus-galli (Echinochloa crus-galli; 60 g a.i./ha) | activity level (fresh weight growth control rate), Amaranthus retroflexus (Amaranthus retroflexus; 60 g a.i./ha) | activity level (fresh weight growth control rate), Abutilon theophrasti (Abutilon theophrasti; 60 g a.i./ha) | activity level (fresh weight growth control rate), Setaria viridis (Setaria viridis; 60 g a.i./ha) | activity level (fresh weight growth control rate), Digitaria sanguinalis (Digitaria sanguinalis; 60 g a.i./ha) | activity level (fresh weight growth control rate), Veronica polita (Veronica polita; 60 g a.i./ha)

CC1(C(=O)OC2CCCC2)ON=C(c2cc(-c3ncc(C(F)(F)F)cc3Cl)c(F)cc2Cl)O1 (stereo not drawn) [Compound 127]
10: activity level (fresh weight growth control rate), Echinochloa crus-galli (Echinochloa crus-galli; 60 g a.i./ha) | activity level (fresh weight growth control rate), Amaranthus retroflexus (Amaranthus retroflexus; 60 g a.i./ha) | activity level (fresh weight growth control rate), Abutilon theophrasti (Abutilon theophrasti; 60 g a.i./ha) | activity level (fresh weight growth control rate), Setaria viridis (Setaria viridis; 60 g a.i./ha) | activity level (fresh weight growth control rate), Digitaria sanguinalis (Digitaria sanguinalis; 60 g a.i./ha) | activity level (fresh weight growth control rate), Veronica polita (Veronica polita; 60 g a.i./ha)

CC1(C(=O)ON=C2CCCC2)ON=C(c2cc(-c3ncc(C(F)(F)F)cc3Cl)c(F)cc2Cl)O1 (racemic) [Compound 145]
10: activity level (fresh weight growth control rate), Echinochloa crus-galli (Echinochloa crus-galli; 60 g a.i./ha) | activity level (fresh weight growth control rate), Amaranthus retroflexus (Amaranthus retroflexus; 60 g a.i./ha) | activity level (fresh weight growth control rate), Abutilon theophrasti (Abutilon theophrasti; 60 g a.i./ha) | activity level (fresh weight growth control rate), Setaria viridis (Setaria viridis; 60 g a.i./ha) | activity level (fresh weight growth control rate), Digitaria sanguinalis (Digitaria sanguinalis; 60 g a.i./ha) | activity level (fresh weight growth control rate), Veronica polita (Veronica polita; 60 g a.i./ha)

CCCCOC(=O)C1(C)ON=C(c2cc(-c3ncc(C(F)(F)F)cc3Cl)c(F)cc2Cl)O1 (stereo not drawn) [Compound 89]
10: activity level (fresh weight growth control rate), Echinochloa crus-galli (Echinochloa crus-galli; 60 g a.i./ha) | activity level (fresh weight growth control rate), Amaranthus retroflexus (Amaranthus retroflexus; 60 g a.i./ha) | activity level (fresh weight growth control rate), Abutilon theophrasti (Abutilon theophrasti; 60 g a.i./ha) | activity level (fresh weight growth control rate), Setaria viridis (Setaria viridis; 60 g a.i./ha) | activity level (fresh weight growth control rate), Digitaria sanguinalis (Digitaria sanguinalis; 60 g a.i./ha) | activity level (fresh weight growth control rate), Veronica polita (Veronica polita; 60 g a.i./ha)

CC(C#N)OC(=O)C1(C)ON=C(c2cc(-c3ncc(C(F)(F)F)cc3Cl)c(F)cc2Cl)O1 (stereo not drawn) [Compound 116]
10: activity level (fresh weight growth control rate), Echinochloa crus-galli (Echinochloa crus-galli; 60 g a.i./ha) | activity level (fresh weight growth control rate), Amaranthus retroflexus (Amaranthus retroflexus; 60 g a.i./ha) | activity level (fresh weight growth control rate), Abutilon theophrasti (Abutilon theophrasti; 60 g a.i./ha) | activity level (fresh weight growth control rate), Setaria viridis (Setaria viridis; 60 g a.i./ha) | activity level (fresh weight growth control rate), Digitaria sanguinalis (Digitaria sanguinalis; 60 g a.i./ha) | activity level (fresh weight growth control rate), Veronica polita (Veronica polita; 60 g a.i./ha)
